In brackets after ≈: the same amount, converted by molar mass. Read-outs that look alike come from different tables or passages of the source. Where a SMILES comes first, the peptide text is derived from it. Bridges are numbered along the chain shown (N, C = ends). Where no end group is shown, it is not given here.
Assays:
[1] = tested on: P. aeruginosa strain Xen05
Procedure: (§1) The mucoid bioluminescent P. aeruginosa strain Xen05 was purchased from Caliper life Sciences, Inc. The nonmucoid bioluminescent strain H1001 was the kind gift of Robert Hancock (University of British Columbia, Vancouver, BC, Canada). Both strains were stored as glycerol stocks at −80 °C. Recombinant hLYS and freeze‐dried Micrococcus luteus were purchased from Sigma Millipore (Burlington, MA, USA). Protegrin 1 AMP (PTG1) and HB71 peptides (> 95% purity) were obtained from Peptide 2.0. LL‐37, Melittin, and Tet009 peptides (> 95% purity) were purchased from GenScript (Piscataway, NJ, USA). Human beta defensin 3 AMP (hBD3) peptide was purchased from AnaSpec. Peptide stock solutions were stored at −20 °C. All other reagents and materials were purchased from Fisher Scientific (Waltham, MA, USA).
(§2) We analyzed the dose–response potency of each AMP against both strains via a well‐validated luminescence assay. Hundred microlitre of exponential phase cells (5 × 10^6 cells/mL) in dextrose/tris (DT) buffer (20 mM dextrose, 100 mM Tris, pH 7.4) were incubated with a 1 : 2 dilution series of each AMP in white, flat‐bottomed, 96‐well plates at 37 °C for 4 h. Culture luminescence was then quantified by imaging with a CCD camera (Bio‐Rad ChemiDoc XRS System, Hercules, CA, USA). Measurements were normalized to the no‐treatment controls on the same plate, and potency was quantified by a 3‐parameter logistic regression of luminescence versus AMP concentration, yielding EC50 values (Fig. S1). Importantly, the luminescence of these P. aeruginosa strains is known to correlate with bacterial viability. Assays were done in technical triplicate or quadruplicate and repeated at least twice.

[2] = tested on: P. aeruginosa strain H1001
Procedure: as §1, §2

[3] = tested on: P. aeruginosa strain Xen05; format: cell-based, Pseudomonas aeruginosa; conditions: for Interaction with hLYS against mucoid strain Xen05: class by FICI, checkerboard with hLYS
Procedure: (§3) Checkerboard, or 2‐D MIC, assays were performed analogous to the single agent dose–response studies above, except that 1 : 2 serial dilutions of hLYS were made across the rows of a 96‐well plate, and 1 : 2 serial dilutions of the AMP were made down the columns of the same plate, such that each well contained a unique concentration mixture of the two agents. Controls without treatment (growth control) and without bacteria (sterility control) were included on all plates. Assays were repeated as three independent trials (biological replicates), and results are the average of all measurements.
(§4) To quantify antibacterial interactions, fractional inhibitory concentrations (FIC) and FIC index values (FICI) were calculated as described elsewhere, though in this case using EC50 values in place of conventional growth/no growth visual observations. Briefly, the FIC for one agent is the ratio of its […]. The corresponding FIC values for the two agents in each row and column, respectively, of a checkerboard plate may be summed, and the lowest FIC sum on the plate is designated the FICI.
(§5) Based on the EC50 values of AMP monotherapies, we designed checkerboard assays wherein antibacterial interactions between hLYS and each AMP were quantified. Classical drug interactions such as synergy, additivity, or antagonism manifest characteristic trends across a given checkerboard assay plate, where FICI < 0.5 is defined as synergy, 0.5 ≤ FICI < 4 is defined as additivity, and FICI ≥ 4 is defined as antagonism. Nonclassical interactions, as observed in some of our checkerboard results, might include a concentration‐dependent switch from synergy (or additivity) to antagonism. In extreme cases, we observed inversion of the dose–response curves for specific combinations and concentration ranges of our antibacterial agents, as discussed below.

[4] = tested on: P. aeruginosa strain H1001; format: cell-based, Pseudomonas aeruginosa; conditions: for Interaction with hLYS against nonmucoid strain H1001: class by FICI, checkerboard with hLYS
Procedure: as §3, §4, §5

[5] = Fig. S1 panels A-F, M, single agent dose response, technical triplicate or quadruplicate, repeated at least twice
[6] = single agent, luminescence, DT buffer (20 mM dextrose, 100 mM Tris, pH 7.4), 5 × 10^6 cells/mL, 37 °C, 4 h, 3-parameter logistic regression, technical triplicate or quadruplicate, repeated at least twice
[7] = Fig. S1 panels G-L, N, single agent dose response, technical triplicate or quadruplicate, repeated at least twice
[8] = AMP combined with hLYS, FIC from EC50 values (50% luminescence reduction), lowest FIC sum on plate, three independent trials

Compound	95% confidence intervals for EC50 values, Xen05 [1, 5]	EC50 Xen05 [1, 6]	95% confidence intervals for EC50 values, H1001 [2, 7]	EC50 H1001 [2, 6]	FICI Xen05 [3, 8]	FICI H1001 [4, 8]	95% confidence intervals for EC50 values, Xen05 ([1]; strain Xen05, 4 h)	EC50 Xen05 ([1]; strain Xen05, 4 h, pH 7.4)	95% confidence intervals for EC50 values, H1001 ([2]; strain H1001, 4 h)	EC50 H1001 ([2]; strain H1001, 4 h, pH 7.4)	Interaction with hLYS against mucoid strain Xen05 [3]	Interaction with hLYS against nonmucoid strain H1001 [4]
CC[C@H](C)[C@H](NC(=O)[C@H](CCCCN)NC(=O)[C@H](CCC(=O)O)NC(=O)[C@H](CCCCN)NC(=O)[C@H](CO)NC(=O)[C@H](CCCCN)NC(=O)[C@H](CCCNC(=N)N)NC(=O)[C@H](Cc1ccccc1)NC(=O)[C@H](Cc1ccccc1)NC(=O)[C@H](CC(=O)O)NC(=O)CNC(=O)[C@H](CC(C)C)NC(=O)[C@@H](N)CC(C)C)C(=O)NCC(=O)N[C@@H](CCCCN)C(=O)N[C@@H](CCC(=O)O)C(=O)N[C@@H](Cc1ccccc1)C(=O)N[C@@H](CCCCN)C(=O)N[C@@H](CCCNC(=N)N)C(=O)N[C@H](C(=O)N[C@H](C(=O)N[C@@H](CCC(N)=O)C(=O)N[C@@H](CCCNC(=N)N)C(=O)N[C@H](C(=O)N[C@@H](CCCCN)C(=O)N[C@@H](CC(=O)O)C(=O)N[C@@H](Cc1ccccc1)C(=O)N[C@@H](CC(C)C)C(=O)N[C@@H](CCCNC(=N)N)C(=O)N[C@@H](CC(N)=O)C(=O)N[C@@H](CC(C)C)C(=O)N[C@H](C(=O)N1CCC[C@H]1C(=O)N[C@@H](CCCNC(=N)N)C(=O)N[C@H](C(=O)N[C@@H](CCC(=O)O)C(=O)N[C@@H](CO)C(=O)O)[C@@H](C)O)C(C)C)[C@@H](C)CC)C(C)C)[C@@H](C)CC [LL37]	4.8 to 5.1 µg/mL	5.0 µg/mL (≈ 1.11 µM)	5.7 to 6.6 µg/mL	6.1 µg/mL (≈ 1.36 µM)	0.5 ± 0.2	0.5 ± 0.2						
CC(C)C[C@H](NC(=O)[C@H](CCCNC(=N)N)NC(=O)CNC(=O)CNC(=O)[C@@H](N)CCCNC(=N)N)C(=O)N[C@H]1CSSC[C@@H](C(=O)N[C@H](C(=O)NCC(=O)N[C@@H](CCCNC(=N)N)C(=O)O)C(C)C)NC(=O)[C@H](C(C)C)NC(=O)[C@@H]2CSSC[C@H](NC(=O)[C@H](Cc3ccc(O)cc3)NC1=O)C(=O)N[C@@H](CCCNC(=N)N)C(=O)N[C@@H](CCCNC(=N)N)C(=O)N[C@@H](CCCNC(=N)N)C(=O)N[C@@H](Cc1ccccc1)C(=O)N2 [PTG‐1] (H-RGGRLCYCRRRFCVCVGR-OH; disulfide 6-15, 8-13 (inferred); N-terminus and C-terminus assumed)							1.1 to 1.2 µg/mL	1.1 µg/mL (≈ 0.51 µM)	1.6 to 1.8 µg/mL	1.7 µg/mL (≈ 0.788 µM)	synergy (FICI < 0.5 is defined as synergy)	synergy (FICI < 0.5 is defined as synergy)
FAKKLAKKLKKLAKKLAK [HB71]	1.4 to 1.8 µg/mL	1.6 µg/mL		2.6 µg/mL								
GIINTLQKYYCRVRGGRCAVLSCLPKEEQIGKCSTRGRKCCRRKK (disulfide 11-40, 18-33, 23-41 (inferred)) [hBD3]							5.5 to 6.5 µg/mL	6.0 µg/mL	6.9 to 7.1 µg/mL	7.0 µg/mL	additivity (0.5 ≤ FICI < 4 is defined as additivity)	synergy (FICI < 0.5 is defined as synergy)
RRWKIVVIRWRR [Tet009]	1.4 to 1.5 µg/mL	1.5 µg/mL	2.5 to 2.9 µg/mL	2.7 µg/mL								
human lysozyme [hLYS]	800 to 1200 µg/mL	990 µg/mL	700 to 1100 µg/mL	890 µg/mL								
